The source made the active and inactive calls. Rule as the data show it, for most assays here: actives have a measured EC50 and inactives only a lower limit.
How the values were obtained:
Estrogen receptor = biological target: T1, Estrogen receptor (Homo sapiens, UniProt P03372);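 also: potency for inhibiting coactivator peptide recruitment to the receptor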
T1 sequence (P03372 whole entry): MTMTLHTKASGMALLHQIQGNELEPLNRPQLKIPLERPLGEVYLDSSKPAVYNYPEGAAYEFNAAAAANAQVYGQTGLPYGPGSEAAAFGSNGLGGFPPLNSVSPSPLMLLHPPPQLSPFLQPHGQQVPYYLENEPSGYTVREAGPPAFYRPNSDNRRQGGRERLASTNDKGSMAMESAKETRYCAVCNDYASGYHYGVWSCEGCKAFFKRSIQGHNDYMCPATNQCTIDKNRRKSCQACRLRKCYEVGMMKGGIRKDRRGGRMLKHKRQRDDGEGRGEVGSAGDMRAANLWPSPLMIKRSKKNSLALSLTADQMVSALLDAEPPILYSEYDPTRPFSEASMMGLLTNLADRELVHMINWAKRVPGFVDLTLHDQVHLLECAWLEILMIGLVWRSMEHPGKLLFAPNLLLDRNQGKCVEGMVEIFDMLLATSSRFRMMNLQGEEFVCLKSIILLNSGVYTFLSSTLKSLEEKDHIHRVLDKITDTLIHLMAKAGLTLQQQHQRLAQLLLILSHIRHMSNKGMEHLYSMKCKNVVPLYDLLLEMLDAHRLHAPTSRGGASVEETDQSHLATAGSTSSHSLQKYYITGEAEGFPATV

Exodeoxyribonuclease V = Exodeoxyribonuclease V (Escherichia coli (strain K12), UniProt P04993+P07648+P08394); test: RecBCD inhibition via phage-restricted bacterial growth – absorbance, V66 E. coli, mutant T4 phage, counter-screen for AddAB inhibitor project, dose response (AID 492957); type: functional, cell-based, Escherichia coli str. K-12 substr. MG1655
[1] = Counterscreen for AddAB inhibitors: absorbance-based bacterial cell-based high throughput dose response assay for inhibitors of bacterial viability. [Related pubchem assays (depositor defined):AID435030, AID449728, AID449731, AID488942, AID488955, AID488956]; type: functional
[2] = biological target: Beta-adrenergic receptor kinase 1 (Homo sapiens, UniProt P25098); test: blockers of aptamer binding to GRK2 – biochemical, flow cytometry beads, FAM-aptamer, powder set 1, dose response (AID 588720)
[3] = luciferase reporter signal suppression in cells – H4 neuroglioma cells, luminescence, dose response (AID 1990); type: functional, cell-based
[4] = luciferase reporter signal reduction – luminescence, H4-C neuroglioblastoma cells, dose response (AID 2458); type: functional, cell-based;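 also: H4 neuroglioblastoma cells stably carrying a luciferase reporter gene fusion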
BJ [5] = test: BJ-TERT fibroblast viability loss – cell-based, RAS-independent, luminescence, dose response (AID 1933); type: functional; conditions: Homo sapiens
cells = type: functional, cell-based
[6] = alpha-synuclein stem-loop luciferase translation blockers – H4 neuroglioma cells, luminescence, confirmation (AID 1988); type: functional, cell-based
BJ [7] = test: cells; type: functional, cell-based; conditions: Homo sapiens
BJ [8] = test: BJ-TERT-LT-ST fibroblast viability loss – cell-based, RAS-independent, luminescence, dose response (AID 1935); type: functional; conditions: Homo sapiens;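 also: BJ fibroblasts immortalized with TERT plus LT and ST oncogenes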
[9] = DRD fibroblast viability loss – cell-based, non-viral oncogenic, luminescence, dose response (AID 1934); type: functional; conditions: Homo sapiens
[10] = alpha-synuclein stem-loop translation blockers – luminescence, H4 neuroglioblastoma cells, dose confirmation, confirmation (AID 2454); type: functional, cell-based;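 also: H4 neuroglioblastoma cells carrying an alpha-synuclein 5'UTR luciferase reporter; potency for inhibition of the luciferase signal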
Jurkat = test: blockers of NF-kB activation in T cells – Jurkat, luciferase reporter, luminescence, B- and T-cell, dose response (AID 489004); type: functional, cell-based; conditions: Homo sapiens;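 also: NF-kB luciferase reporter Jurkat cells stimulated with PMA plus ionomycin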
[11] = HEK-293T viability loss, compound-treated – cell-based, uHTS hits, cytotoxicity control for B/T-cell NF-kB inhibitor project, dose response (AID 489019); type: functional;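 also: IC50 reflects cytotoxicity as loss of cell viability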
Paired box protein Pax-8 = Paired box protein Pax-8 (Homo sapiens, UniProt Q06710); test: PAX8 transcriptional activity inhibition in RMG-I – RMG-I cells, luciferase, cherry-pick, dose response (AID 687027); type: functional, cell-based;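 also: luciferase reporter driven by Pax8 target thyroperoxidase promoter measured by SteadyGlo luminescence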
Cytochrome P450 1A2 = biological target: T2, Cytochrome P450 1A2 (Homo sapiens, UniProt P05177);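 also: PubChem cytochrome P450 panel assay, CYP1A2 panel member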
T2 sequence (P05177 whole entry): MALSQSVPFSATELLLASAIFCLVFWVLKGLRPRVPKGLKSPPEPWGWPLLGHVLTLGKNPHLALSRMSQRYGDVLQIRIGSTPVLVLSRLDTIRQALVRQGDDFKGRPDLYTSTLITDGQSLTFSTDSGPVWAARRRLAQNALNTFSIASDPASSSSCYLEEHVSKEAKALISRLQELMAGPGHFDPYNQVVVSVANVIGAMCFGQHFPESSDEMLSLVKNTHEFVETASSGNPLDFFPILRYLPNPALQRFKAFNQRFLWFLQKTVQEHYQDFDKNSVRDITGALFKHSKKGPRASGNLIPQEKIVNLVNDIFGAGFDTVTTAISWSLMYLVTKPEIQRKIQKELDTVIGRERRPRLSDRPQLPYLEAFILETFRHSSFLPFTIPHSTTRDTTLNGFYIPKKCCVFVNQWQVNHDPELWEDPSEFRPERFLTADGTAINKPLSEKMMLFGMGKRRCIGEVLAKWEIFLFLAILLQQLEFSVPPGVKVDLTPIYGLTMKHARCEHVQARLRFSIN

Sequence of Exodeoxyribonuclease V (P04993 whole entry): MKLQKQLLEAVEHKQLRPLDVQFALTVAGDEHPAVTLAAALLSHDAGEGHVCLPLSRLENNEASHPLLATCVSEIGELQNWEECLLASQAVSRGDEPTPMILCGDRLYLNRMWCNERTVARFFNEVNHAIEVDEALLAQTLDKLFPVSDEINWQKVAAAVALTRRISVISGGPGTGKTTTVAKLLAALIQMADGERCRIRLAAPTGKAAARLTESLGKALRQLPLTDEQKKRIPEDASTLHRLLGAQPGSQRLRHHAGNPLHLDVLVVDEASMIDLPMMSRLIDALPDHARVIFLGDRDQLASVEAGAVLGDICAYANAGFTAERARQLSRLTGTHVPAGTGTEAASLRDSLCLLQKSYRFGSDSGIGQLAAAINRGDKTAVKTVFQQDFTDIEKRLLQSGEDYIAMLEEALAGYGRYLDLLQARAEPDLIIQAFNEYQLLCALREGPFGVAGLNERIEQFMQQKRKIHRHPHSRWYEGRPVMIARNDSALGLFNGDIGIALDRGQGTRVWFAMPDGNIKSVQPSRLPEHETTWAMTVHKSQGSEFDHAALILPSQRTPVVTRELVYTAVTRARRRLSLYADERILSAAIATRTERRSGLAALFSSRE
Sequence of Exodeoxyribonuclease V (P07648 whole entry): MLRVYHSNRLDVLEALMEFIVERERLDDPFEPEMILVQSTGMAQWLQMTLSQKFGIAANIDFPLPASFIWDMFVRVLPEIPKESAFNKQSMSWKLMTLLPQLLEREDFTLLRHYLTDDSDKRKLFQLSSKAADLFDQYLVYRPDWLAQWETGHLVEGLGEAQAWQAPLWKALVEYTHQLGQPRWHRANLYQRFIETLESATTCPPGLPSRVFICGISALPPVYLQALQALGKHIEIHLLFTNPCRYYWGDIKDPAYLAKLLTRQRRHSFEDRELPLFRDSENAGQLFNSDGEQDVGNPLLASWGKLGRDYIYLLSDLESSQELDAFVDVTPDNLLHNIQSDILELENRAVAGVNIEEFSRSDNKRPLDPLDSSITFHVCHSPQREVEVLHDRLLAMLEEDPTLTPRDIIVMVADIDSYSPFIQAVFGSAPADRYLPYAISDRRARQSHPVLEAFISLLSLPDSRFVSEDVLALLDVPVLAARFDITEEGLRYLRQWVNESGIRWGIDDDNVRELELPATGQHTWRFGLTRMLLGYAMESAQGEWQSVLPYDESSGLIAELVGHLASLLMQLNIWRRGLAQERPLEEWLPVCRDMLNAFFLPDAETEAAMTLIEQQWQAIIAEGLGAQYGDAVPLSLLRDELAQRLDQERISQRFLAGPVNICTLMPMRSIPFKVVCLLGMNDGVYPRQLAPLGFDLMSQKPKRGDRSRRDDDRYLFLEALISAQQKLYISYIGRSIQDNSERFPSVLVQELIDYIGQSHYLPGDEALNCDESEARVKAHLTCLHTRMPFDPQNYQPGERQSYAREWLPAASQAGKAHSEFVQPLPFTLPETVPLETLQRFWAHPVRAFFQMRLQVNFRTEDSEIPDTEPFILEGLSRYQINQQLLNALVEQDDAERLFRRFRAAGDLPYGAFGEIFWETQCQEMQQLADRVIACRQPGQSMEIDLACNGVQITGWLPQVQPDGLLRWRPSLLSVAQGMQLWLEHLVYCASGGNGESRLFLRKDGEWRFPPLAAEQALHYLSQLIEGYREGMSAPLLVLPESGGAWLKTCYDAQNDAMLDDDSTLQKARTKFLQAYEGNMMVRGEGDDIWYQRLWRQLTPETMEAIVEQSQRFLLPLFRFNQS
Sequence of Exodeoxyribonuclease V (P08394 whole entry): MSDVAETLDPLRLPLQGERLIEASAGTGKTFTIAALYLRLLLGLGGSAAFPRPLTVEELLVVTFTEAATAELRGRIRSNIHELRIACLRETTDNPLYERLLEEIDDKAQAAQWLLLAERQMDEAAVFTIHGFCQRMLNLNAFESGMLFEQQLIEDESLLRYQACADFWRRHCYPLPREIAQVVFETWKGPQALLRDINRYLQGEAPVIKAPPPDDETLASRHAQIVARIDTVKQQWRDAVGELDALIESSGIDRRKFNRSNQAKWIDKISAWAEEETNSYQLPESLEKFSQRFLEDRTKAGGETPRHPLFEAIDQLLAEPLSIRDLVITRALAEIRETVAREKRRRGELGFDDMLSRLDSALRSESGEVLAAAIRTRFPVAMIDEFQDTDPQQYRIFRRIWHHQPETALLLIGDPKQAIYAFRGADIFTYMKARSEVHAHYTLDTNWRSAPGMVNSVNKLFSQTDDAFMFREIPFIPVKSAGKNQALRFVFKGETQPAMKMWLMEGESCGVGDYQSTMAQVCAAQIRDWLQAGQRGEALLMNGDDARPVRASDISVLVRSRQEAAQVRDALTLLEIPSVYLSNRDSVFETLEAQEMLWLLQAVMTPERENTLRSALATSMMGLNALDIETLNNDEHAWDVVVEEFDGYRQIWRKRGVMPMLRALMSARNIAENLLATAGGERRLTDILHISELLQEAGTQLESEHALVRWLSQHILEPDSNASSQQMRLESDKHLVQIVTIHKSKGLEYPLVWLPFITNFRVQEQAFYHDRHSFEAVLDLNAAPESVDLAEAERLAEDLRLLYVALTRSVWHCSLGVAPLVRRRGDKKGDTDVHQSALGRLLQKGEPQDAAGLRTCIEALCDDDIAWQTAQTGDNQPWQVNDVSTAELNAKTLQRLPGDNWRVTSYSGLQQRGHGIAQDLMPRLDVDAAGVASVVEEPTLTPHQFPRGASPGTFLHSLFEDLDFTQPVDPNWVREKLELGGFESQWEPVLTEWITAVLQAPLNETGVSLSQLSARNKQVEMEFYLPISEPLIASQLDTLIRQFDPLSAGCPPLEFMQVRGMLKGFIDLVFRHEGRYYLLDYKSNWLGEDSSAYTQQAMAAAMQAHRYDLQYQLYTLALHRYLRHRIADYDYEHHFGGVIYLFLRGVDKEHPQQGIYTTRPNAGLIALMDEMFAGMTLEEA
Sequence of Paired box protein Pax-8 (Q06710 whole entry): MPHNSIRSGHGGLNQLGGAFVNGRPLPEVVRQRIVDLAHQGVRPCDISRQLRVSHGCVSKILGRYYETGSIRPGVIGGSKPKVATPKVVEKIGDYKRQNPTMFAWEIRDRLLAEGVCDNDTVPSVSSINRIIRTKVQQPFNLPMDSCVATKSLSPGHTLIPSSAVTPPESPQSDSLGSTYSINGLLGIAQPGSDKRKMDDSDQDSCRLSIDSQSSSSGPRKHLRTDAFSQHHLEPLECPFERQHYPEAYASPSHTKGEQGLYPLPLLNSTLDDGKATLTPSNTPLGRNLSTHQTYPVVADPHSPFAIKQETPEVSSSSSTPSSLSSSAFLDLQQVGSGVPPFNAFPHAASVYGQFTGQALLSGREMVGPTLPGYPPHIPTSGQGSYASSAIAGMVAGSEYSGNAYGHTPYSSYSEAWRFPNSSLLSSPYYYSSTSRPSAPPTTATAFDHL
Sequence of Beta-adrenergic receptor kinase 1 (P25098 whole entry): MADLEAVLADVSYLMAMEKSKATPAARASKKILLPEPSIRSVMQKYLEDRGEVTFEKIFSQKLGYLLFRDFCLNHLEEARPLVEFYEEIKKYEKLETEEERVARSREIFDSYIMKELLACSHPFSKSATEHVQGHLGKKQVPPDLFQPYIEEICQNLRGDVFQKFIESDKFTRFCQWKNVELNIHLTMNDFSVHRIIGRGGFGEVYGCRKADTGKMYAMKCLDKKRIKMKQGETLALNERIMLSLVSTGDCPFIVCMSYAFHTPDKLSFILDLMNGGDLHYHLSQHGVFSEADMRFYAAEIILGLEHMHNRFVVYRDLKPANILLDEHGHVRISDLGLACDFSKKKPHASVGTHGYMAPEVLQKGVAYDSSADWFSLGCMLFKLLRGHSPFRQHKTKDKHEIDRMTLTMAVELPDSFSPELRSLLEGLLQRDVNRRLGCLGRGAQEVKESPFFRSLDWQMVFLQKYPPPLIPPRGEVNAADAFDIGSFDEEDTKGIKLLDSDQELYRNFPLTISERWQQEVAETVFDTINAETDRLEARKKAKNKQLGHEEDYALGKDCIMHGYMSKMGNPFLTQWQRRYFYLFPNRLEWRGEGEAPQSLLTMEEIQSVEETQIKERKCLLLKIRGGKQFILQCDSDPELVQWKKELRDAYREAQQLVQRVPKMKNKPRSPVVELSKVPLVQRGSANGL

SMILES: Cc1cccc(NC(=O)Cn2cc(C(=O)c3ccco3)c3ccccc32)c1
- IC50 (Estrogen receptor): > 50000 nM (not active)
- IC50 (Exodeoxyribonuclease V): > 119000 nM (inactive)
- IC50 [1]: > 119000 nM (inactive)

SMILES: O=C(CCS(=O)(=O)c1ccc(Br)cc1)NCCc1ccc(Cl)cc1
- EC50 [2]: 7060 nM (active)

SMILES: O=C(c1ccc(Br)cc1)c1cc([N+](=O)[O-])ccc1N1CCCCC1
- EC50 [3]: 623 nM (active)
- EC50 [4]: 892 nM (active)
- EC50 (BJ [5]): 697 nM (active)
- EC50 (cells): 1490 nM (active)
- EC50 [6]: < 100 nM (active)
- EC50 (BJ [7]): 1120 nM (inconclusive)
- EC50 (BJ [8]): 464 nM (active)
- EC50 [9]: 694 nM (active)
- EC50 [10]: > 12000 nM (inconclusive)
- IC50 (Jurkat): > 80000 nM (inactive)
- IC50 [11]: > 80000 nM (inactive)
- AC50 (Paired box protein Pax-8): 2730 nM (active)
- AC50 (Cytochrome P450 1A2): 2000 nM (inconclusive)
